Patent US11026914B2 (DelMar Pharmaceuticals, Inc., priority 2013, dated 2021)
Like-named read-outs stand apart in the source and are kept apart here.

Columns and labels:
[1] = molecular target: glycogen synthase kinase-3β (GSK-3β) (Homo sapiens, UniProt P49841); settings: cited from earlier work
[2] = tested on: GBM cell lines SF188, U251, and T98G; test: Inhibition of tumor cell growth in GBM cell lines (FIG. 1, FIG. 6); assay type: cell-based, human; settings: independent of MGMT
[3] = tested on: cancer stem cells (BT74, GBM4 and GBM8); settings: BT74, GBM4 and GBM8, neurosphere growth assays; cited from earlier work
[4] = tested on: normal human neural stem cells; settings: neurosphere growth assays; cited from earlier work
GBM = settings: cited from earlier work
[5] = tested on: recurrent glioblastoma multiforme (GBM); test: Phase I/II dose-escalation study: tumor response (RANO) in recurrent GBM patients
Excerpt: (§1) The study utilizes a 3+3 dose escalation design, until the MTD or the maximum specified dose is reached. […] In Phase II, additional patients will be treated at the MTD (or other selected optimum Phase II dose) to measure tumor responses. […] For these studies, the following is a summary of the inclusion criteria: (1) Patients must be greater than or equal to 18 years old. […] The following is a summary of the exclusion criteria: (1) There is a current history of neoplasm other than the entry diagnosis. Patients with previous cancers treated and cured with local therapy alone may be considered. (2) There is evidence of leptomeningeal spread of disease.
Higher doses may be enrolled subject to completion of mandated safety observation period with Cohort 6 (30 mg/m^2). Patients enrolled present with refractory progressive GBM and a dire prognosis. […] The primary endpoint of this portion of the study is to determine a modernized dosing regimen for advancement to registration-directed clinical trials. […] In this design, it is not possible to perform a rigorous assessment of patient benefit due to slowed tumor growth. Tumor volume is assessed during the study based on RANO criteria.
Open-label, single-arm Phase I/II dose-escalation study in patients with histologically-confirmed initial diagnosis of primary WHO Grade IV malignant glioma (glioblastoma). […] The study utilizes a 3+3 dose-escalation design. […] The RANO (Response Assessment in Neuro-Oncology) criteria divide responses into four general categories: complete response, partial response, stable disease, and regression.

[6] = human, in vivo
Excerpt: as §1
Open-label, single-arm Phase I/II dose-escalation study in patients with histologically-confirmed initial diagnosis of primary WHO Grade IV malignant glioma (glioblastoma). […] The study utilizes a 3+3 dose-escalation design.

[7] = tested on: intracranial U251 human glioma tumors
Excerpt: However, TMZ-resistance has emerged as a significant unmet medical need, as DNA repair enzyme O^6-methylguanine DNA methyltransferase (MGMT) removes the methyl-group adducts caused by TMZ. […] We thus sought to investigate how our CSC and non-CSC panel would respond to VAL-083 alone or in combination with XRT. We further investigated the activity of VAL-083 in in vivo models of drug-resistant GBM in comparison to TMZ. Rag2 mice bearing intracranial human GBM xenograft tumors of either MGMT-positive and TMZ-resistant origin (BT74), or MGMT-negative and TMZ-sensitive origin (U251) were treated. VAL-083 was given i.p. 3 times/week×3 weeks, and the efficacy of VAL-083 in controlling tumor growth compared to TMZ (30 mg/kg). Disease progression was evaluated by overall survival, clinical observations and body weight measurements.
On study day 0 for each set of mice, 44 female Rag2 mice were inoculated intracranially in the right caudate-putamen nucleus (coordinates: ML-1.5 mm; AP 1 mm; DV −3.5 mm) with 7.5×10^4 U251 human glioma cells.

[8] = Plasma pharmacokinetics in brain tumor patients after IV infusion (WinNonlin non-compartmental analysis); assay type: in vivo, human; settings: for dose dependence of systemic exposure: dose escalation in patients
Protocol: Plasma drug concentration analysis data were analyzed using WinNonlin®, version 2.1A software (Pharsight Inc., Mountain View, Calif.) and Microsoft Office Excel 2007. Pharmacokinetic analysis was conducted by Dr. Sarath Kanekal, Ph.D. Use of MS Excel was limited to receipt of raw data, transfer into WinNonlin and generation of tables (Mean and SD) and graphs for the report.
The starting dose for Cohort #1 was 1.5 mg/m^2 IV daily×3 every 21 days. Cohorts 2 and 3 received DAG at doses of 3.0 and 5.0 mg/m^2 IV daily×3 every 21 days, respectively; cohort 4 received 10 mg/m^2. Dose escalation beyond 10 mg/m^2, up to 40 mg/m^2 IV daily×3 every 21 days is planned in the ongoing trial. Sample collection was on Day 1 at each dose level at the following time points: pre-dose, and 0.25, 0.5, 1, 2, 4, 6 h 15±5 minutes, 30±5 minutes, 60±10 minutes, 120±10 minutes, 240±15 minutes, and 360±15 minutes after the end of the IV study drug administration and immediately prior to Cycle 1, Day 2 of dosing. Drug concentration data was received from at least 3 patients for cohorts 1, 2 and 3, but only from 2 patients in cohort 4.
For the purposes of this interim analysis a fixed constant infusion time of 30 minutes and nominal collection time intervals were used for all patients. […] For the final PK analysis individual patient infusion time and exact collection time are used.
Pharmacokinetic analyses were performed on the plasma concentration versus time data using WinNonlin (Ver 2.1A) via non-compartmental analysis (NCA). A model for constant infusion (WinNonlin Model #202) was used for the analyses. Uniform weighting was used for all data. AUCall was calculated by the linear trapezoid rule and t1/2 of lambda z was used for estimating the terminal half-life. The last 2 or 3 concentrations above LLOQ were used for calculating lambda z. For clearance (CL) and Volume of Distribution (Vz), observed CL and observed Vz values outputted by WinNonlin are reported here. All plasma concentrations measurements reported as below the limit of quantitation (BLQ) was set equal to zero, and those reported as NS (no sample), if any, were left blank and treated as missing. Mean concentration and WinNonlin derived parameters are presented with standard deviation.

[9] = tested on: progressive secondary brain tumor; test: Phase I/II dose-escalation study: tumor response in progressive secondary brain tumor patients; assay type: in vivo, human; settings: n = 6
Excerpt: (2) There is evidence of leptomeningeal spread of disease.
Outcomes analysis of cohort 6 is ongoing.

Chain of glycogen synthase kinase-3β (GSK-3β) (P49841 whole entry, species assumed): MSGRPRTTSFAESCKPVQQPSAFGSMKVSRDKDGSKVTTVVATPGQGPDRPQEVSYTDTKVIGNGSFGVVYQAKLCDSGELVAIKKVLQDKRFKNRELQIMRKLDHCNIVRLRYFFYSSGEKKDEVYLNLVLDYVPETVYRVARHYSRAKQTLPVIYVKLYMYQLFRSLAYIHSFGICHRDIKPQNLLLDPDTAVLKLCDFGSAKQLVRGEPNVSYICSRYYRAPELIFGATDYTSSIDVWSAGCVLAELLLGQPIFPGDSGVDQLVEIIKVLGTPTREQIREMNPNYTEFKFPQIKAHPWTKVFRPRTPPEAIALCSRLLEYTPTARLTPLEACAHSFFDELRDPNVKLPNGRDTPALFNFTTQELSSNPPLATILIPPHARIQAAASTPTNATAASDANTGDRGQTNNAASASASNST

For `CN1C(=O)/C(=C2/C(=O)Nc3ccccc32)c2ccccc21` [meisoindigo], the “concentration for inhibition of GSK-3β” value [1] is listed as 5 to 50 nM.

In the case of `O[C@H]([C@H](O)[C@@H]1CO1)[C@H]1CO1` [dianhydrogalactitol], the “inhibition of tumor (cell) growth compared with TMZ” value [2] is given as “better than TMZ”, the “inhibition of growth of cancer stem cells” value [3] is given as 80-100% and the “effect on normal human neural stem cells” value [4] is given as “minimal effect”. The Recovery (GBM; GBM, historical data) was “Within 7-8 days”, the “efficacy in combination with radiation versus radiation alone” value (GBM; human, in vivo, iv) was “superior to radiation alone” and the DLT (GBM; human, in vivo) was “Hematologic”. The “Median O.S. (XRT + Chemo)” value (GBM; human, in vivo) was 67 weeks, the Nadir (GBM; human, in vivo) was 18 to 21 days and the “Other Severe Toxicities Reported (>2%)” value (GBM; human, in vivo) was “None”. The “tumor response in cohort 6” value ([5]; 30 mg/m^2, after 1 cycle, one of two patients) was “exhibited stable disease”, the “Tumor Response, Overall” value ([5]; GBM patients, n = 8) was 25% and the “Tumor Response, type (number of patients)” value ([5]; GBM patients, n = 8) was “PR (1); SD”. The “MRI scans, abnormal enhancement” value ([5]; Patient #26, T=0 vs T=64 days, after two cycles) was “Thick confluent regions of abnormal enhancement have diminished”, the “patients exhibiting a response (stable disease or partial response)” value ([5]; early cohorts, Example 1) was “Two patients exhibiting a response” and the “maximum tolerated dose (MTD), as 33 day cycle cumulative dose” value [6] was over 120 mg/m^2. For the same compound, the median survival time ([7]; 3 mg/kg i.p. 3 times/week x 3 weeks) was 54 days, the median survival time ([7]; 4 mg/kg i.p. 3 times/week x 3 weeks) was 72 days and the median survival time ([7]; 5 mg/kg i.p., 4 doses only) was 57 days. The “average Cmax” value ([8]; 10 mg/m^2) was under 200 ng/mL, the Cmax ([8]; 20 mg/m^2, average) was 180 ng/mL and the AUC ([8]; Cohort 1, 1.5 mg/m^2) was 18.9 ng·h/mL. It also gave a Cmax ([8]; Cohort 1, 1.5 mg/m^2) of 16.5 ng/mL, a Tmax ([8]; Cohort 1, 1.5 mg/m^2) of 15 min and a t-½ ([8]; Cohort 1, 1.5 mg/m^2) of 2.02 h. It also gave an AUC ([8]; Cohort 2, 3 mg/m^2) of 48.5 ng·h/mL, a Cmax ([8]; Cohort 2, 3 mg/m^2) of 46.4 ng/mL and a Tmax ([8]; Cohort 2, 3 mg/m^2) of 15 min. For the same compound, the t-½ ([8]; Cohort 2, 3 mg/m^2) was 0.83 h, the AUC ([8]; Cohort 3, 5 mg/m^2) was 108.0 ng·h/mL and the Cmax ([8]; Cohort 3, 5 mg/m^2) was 80.5 ng/mL. It also gave a Tmax ([8]; Cohort 3, 5 mg/m^2) of 15 min, a t-½ ([8]; Cohort 3, 5 mg/m^2) of 1.27 h and an AUC ([8]; Cohort 4, 10 mg/m^2) of 191.7 ng·h/mL. It also gave a Cmax ([8]; Cohort 4, 10 mg/m^2) of 172.0 ng/mL, a Tmax ([8]; Cohort 4, 10 mg/m^2) of 15 min and a t-½ ([8]; Cohort 4, 10 mg/m^2) of 1.19 h. The “time of peak concentration after initiation of the intravenous infusion” value ([8]; all dose levels 1.5-10 mg/m^2) was 0.25, the “time for plasma concentrations to return to near baseline after dosing” value ([8]; cohorts 1-4) was at most 8 h and the “dose dependence of systemic exposure” value [8] was “dose-dependent linear systemic exposure”. The “dose dependence of systemic exposure” value ([8]; listed as DAG) was “more than dose proportional increase in exposure”, the “dose dependence of systemic exposure” value ([8]; listed as Dianhydrogalactitol) was “dose-dependent increase in exposure” and the “dose dependence of systemic exposure” value ([8]; listed as VAL-083) was “dose-dependent linear systemic exposure”. The plasma half-life ([8]; patients, IV) was 60 to 120 min, the plasma terminal half-life ([8]; patients, IV) was 60 to 120 min and the “Tumor Response, Overall” value [9] was 17%. The “Tumor Response, type (number of patients)” value [9] was “SD (1)”.

In the case of `O=NN(CCCl)C(=O)NCCCl` [Carmustine], the “Median O.S. (XRT + Chemo)” value (GBM; GBM, historical data) is listed as 40-50 weeks and the Nadir (GBM; human, in vivo) is listed as 21 to 35 days.

For `Cn1nnc2c(C(N)=O)ncn2c1=O` [temozolomide], the DLT (GBM; GBM, historical data) is given as “Hematologic”, the Nadir (GBM; GBM, historical data) is given as 21 to 28 days and the Recovery (GBM; GBM, historical data) is given as “Within 14 days”. For the same compound, the “day of termination at the end of the study” value ([7]; TMZ 30 mg/kg) was 102 days.
